{"source": "PubChem BioAssay AID1259409", "about": "(Chemical Carcinogenesis Research Information System (CCRIS), 2018)", "origin": "cited, not measured here", "test_system": "rodent chemically induced tumor inhibition, incidence and multiplicity", "assay": "CCRIS tumor inhibitor studies", "conditions": "for outcome: Strain/Sex: SENCAR/FEMALE, Target Tissue: Type of Lesion: SKIN: TUMOR, Dose [Carcinogen]: 40 NMOL IN 0.2 ML ACETONE ONCE", "note": "“And” between values parts separate entries of the source, which are not always exact repeats. Identical values can stand only once.", "data": [{"smiles": "CC1=CCC(=O)O1", "values": [{"measurement": "tumour outcome (control, treated, inhibition, significance)", "setting": "Carcinogen: BENZO[A]PYRENE, 50-32-8, Dose [Inhibitor]: 0.034 MMOL/G IN DIET FOR 5 WK (STUDY DURATION: 21 WK), Route [Inhibitor]: ORAL, Species: MOUSE, Strain/Sex: ICR/HA/FEMALE, Target Tissue: Type of Lesion: FORESTOMACH: TUMOR, Dose [Carcinogen]: 1 MG IN 0.2 ML CORN OIL, 2/WK FOR 4 WK STARTING ON D 8 OF EXPERIMENT, Promoter: NONE USED", "value": "95%, 42%, 56%, p<0.01 and 95%, 53%, 44%, p<0.01"}]}, {"smiles": "CC1(C)[C@@H](O)CC[C@]2(C)[C@H]3C(=O)C=C4[C@@H]5C[C@@](C)(C(=O)O)CC[C@]5(C)CC[C@@]4(C)[C@]3(C)CC[C@@H]12", "values": [{"measurement": "outcome", "setting": "Carcinogen: 7,12-DIMETHYLBENZ[A]ANTHRACENE, 57-97-6, Dose [Inhibitor]: 0, 10 UMOL IN 0.2 ML DMSO/ACETONE (1:2) 1/D BEGINNING 7 D PRIOR TO CARCINOGEN DOSE (STUDY DURATION: 16 WK), Route [Inhibitor]: DERMAL, Species: MOUSE", "value": "100%, 45%, 55%, not calculated at 9 wk; 100%, 85%, 15%, not calculated at 16 wk"}, {"measurement": "outcome", "setting": "Carcinogen: 7,12-DIMETHYLBENZ[A]ANTHRACENE, 57-97-6, Dose [Inhibitor]: 0, 30 UMOL IN DMSO/ACETONE (1:2) 30 MIN PRIOR TO EACH PROMOTER DOSE (STUDY DURATION: 16 WK), Route [Inhibitor]: DERMAL, Species: MOUSE", "value": "100%, 40%, 60%, not calculated at 9 wk; 100%, 80%, 20%, not calculated at 16 wk"}, {"measurement": "tumour outcome (control, treated, inhibition, significance)", "setting": "Carcinogen: 7,12-DIMETHYLBENZ[A]ANTHRACENE, 57-97-6, Dose [Inhibitor]: 10 UMOL APPLIED 40 MINUTES PRIOR TO PROMOTER DOSE (STUDY DURATION: 20 WK), Route [Inhibitor]: DERMAL, Species: MOUSE, Strain/Sex: ICR/FEMALE, Target Tissue: Type of Lesion: SKIN: PAPILLOMA, Dose [Carcinogen]: 100 UG ONCE", "value": "100%, 40%, 60%, p<0.05"}, {"measurement": "tumour outcome (control, treated, inhibition, significance)", "setting": "Carcinogen: AZOXYMETHANE, 25843-45-2, Dose [Inhibitor]: 0, 1200 PPM IN DIET BEGINNING 1 WK PRIOR TO CARCINOGEN TREATMENT FOR DURATION OF STUDY (STUDY DURATION: 54 WK), Route [Inhibitor]: ORAL, Species: RAT, Strain/Sex: F344/MALE, Target Tissue: Type of Lesion: COLON: ADENOCARCINOMA, Dose [Carcinogen]: 15 MG/KG/BW 1/WK FOR 2 WK, Promoter: NONE USED", "value": "58%, 78%, -35%, not calculated"}, {"measurement": "tumour outcome (control, treated, inhibition, significance)", "setting": "Carcinogen: AZOXYMETHANE, 25843-45-2, Dose [Inhibitor]: 0, 1200 PPM IN DIET BEGINNING 1 WK PRIOR TO CARCINOGEN TREATMENT FOR DURATION OF STUDY (STUDY DURATION: 54 WK), Route [Inhibitor]: ORAL, Species: RAT, Strain/Sex: F344/MALE, Target Tissue: Type of Lesion: COLON: ADENOMA, Dose [Carcinogen]: 15 MG/KG/BW 1/WK FOR 2 WK, Promoter: NONE USED", "value": "6%, 6%, 0%, not calculated"}, {"measurement": "tumour outcome (control, treated, inhibition, significance)", "setting": "Carcinogen: AZOXYMETHANE, 25843-45-2, Dose [Inhibitor]: 0, 2400 PPM IN DIET BEGINNING 1 WK PRIOR TO CARCINOGEN TREATMENT FOR DURATION OF STUDY (STUDY DURATION: 54 WK), Route [Inhibitor]: ORAL, Species: RAT, Strain/Sex: F344/MALE, Target Tissue: Type of Lesion: COLON: ADENOMA, Dose [Carcinogen]: 15 MG/KG/BW 1/WK FOR 2 WK, Promoter: NONE USED", "value": "6%, 6%, 0%, not significant"}, {"measurement": "tumour outcome (control, treated, inhibition, significance)", "setting": "Carcinogen: AZOXYMETHANE, 25843-45-2, Dose [Inhibitor]: 0, 2400 PPM IN DIET BEGINNING 1 WK PRIOR TO CARCINOGEN TREATMENT OF DURATION OF STUDY (STUDY DURATION: 54 WK), Route [Inhibitor]: ORAL, Species: RAT, Strain/Sex: F344/MALE, Target Tissue: Type of Lesion: COLON: ADENOCARCINOMA, Dose [Carcinogen]: 15 MG/KG/BW 1/WK FOR 2 WK, Promoter: NONE USED", "value": "58%, 53%, 9%, not calculated"}]}, {"smiles": "Cn1cnc2c1c(=O)[nH]c(=O)n2C", "values": [{"measurement": "tumour outcome (control, treated, inhibition, significance)", "setting": "Carcinogen: URETHANE, 51-79-6, Dose [Inhibitor]: 0.05 UMOL/G BW GIVEN AS 7 INJECTIONS 1/6 HR FOR 36 HR AFTER CARCINOGEN TREATMENT FOLLOWED BY 5 MO OBSERVATION PERIOD (ST, Route [Inhibitor]: INTRAPERITONEAL, Species: MOUSE, Strain/Sex: ICR/FEMALE, Target Tissue: Type of Lesion: LUNG: PAPILLARY ADENOMA, Dose [Carcinogen]: 0.1 MG/G BW ONCE AT 25 D OF AGE, Promoter: NONE USED", "value": "31/59 (53%), 11/56 (20%), 62%, p<0.001"}]}, {"smiles": "CCC(=O)Oc1ccc2c(c1)CC[C@@H]1[C@@H]2CC[C@]2(C)[C@@H](OC(=O)CC)CC[C@@H]12", "values": [{"measurement": "tumour outcome (control, treated, inhibition, significance)", "setting": "Carcinogen: 1,2-DIMETHYLHYDRAZINE, 540-73-8, Dose [Inhibitor]: 0, 0.1 ML OF A SOLUTION IN OLIVE OIL 1/WK FOR 30 WK ADMINISTERED 1 DAY PRIOR TO EACH CARCINOGEN DOSE AND CONTINUING FOR, Route [Inhibitor]: SUBCUTANEOUS, Species: MOUSE, Strain/Sex: C3H/FEMALE, Target Tissue: Type of Lesion: CLITORAL GLAND: TUMORS, Dose [Carcinogen]: 8 MG/KG BW 1/WK FOR 20 WK, Promoter: NONE USED", "value": "23/36 (64%), 7/37 (19%), 70%, p=0.026"}, {"measurement": "tumour outcome (control, treated, inhibition, significance)", "setting": "Carcinogen: 7,12-DIMETHYLBENZ[A]ANTHRACENE, 57-97-6, Dose [Inhibitor]: 0, 1 MG/100 G BW 1/WK FOR 150 D BEGINNING POST CARCINOGEN TREATMENT (STUDY DURATION: 150 D), Route [Inhibitor]: SUBCUTANEOUS, Species: RAT, Strain/Sex: WISTAR/FEMALE, Target Tissue: Type of Lesion: MAMMARY GLAND: ADENOCARCINOMA, Dose [Carcinogen]: 4 MG IN 0.1 ML OF SESAME OIL INJECTED ONCE INTO THE EXPOSED MAMMARY TISSUE OF HYPERPROLACTINEMIC RATS ON DAY 73 OF AGE, Promoter: NONE USED", "value": "8/11 (73%), 1/7 (14%), 81%, p<0.05"}]}, {"smiles": "CCNC(=O)\\C=C(C)/C=C/C=C(C)/C=C/C1=C(C)CCCC1(C)C", "values": [{"measurement": "tumour outcome (control, treated, inhibition, significance)", "setting": "Carcinogen: N-BUTYL-N-(4-HYDROXYBUTYL)NITROSAMINE, 3817-11-6, Dose [Inhibitor]: 1.5 MMOL/KG DIET DAILY FOR 153 D STARTING ONE WK AFTER THE FINAL CARCINOGEN DOSE (STUDY DURATION: 210 D), Route [Inhibitor]: ORAL, Species: MOUSE, Strain/Sex: BDF/MALE, Target Tissue: Type of Lesion: URINARY BLADDER: TRANSITIONAL CELL CARCINOMA, Dose [Carcinogen]: 7.5 MG 1/WK FOR 8 WK, Promoter: NONE USED", "value": "35/99 (35%), 19/96 (20%), 43%, p<0.05"}, {"measurement": "tumour outcome (control, treated, inhibition, significance)", "setting": "Carcinogen: N-BUTYL-N-(4-HYDROXYBUTYL)NITROSAMINE, 3817-11-6, Dose [Inhibitor]: 1.5 MMOL/KG IN DIET DAILY FOR 153 D STARTING ONE WK AFTER THE LAST CARCINOGEN DOSE (STUDY DURATION: 210 D), Route [Inhibitor]: ORAL, Species: MOUSE, Strain/Sex: BDF/MALE, Target Tissue: Type of Lesion: URINARY BLADDER: TRANSITIONAL CELL CARCINOMA, Dose [Carcinogen]: 7.5 MG 1/WK FOR 8 WK, Promoter: NONE USED", "value": "35/99 (35%), 19/96 (20%), 43%, p<0.05"}]}]}
